# Results published in PubChem BioAssay AID743124 (Broad Institute, 2013).
# Values joined by “and” are separate entries in the source; they are usually repeats but may differ in a detail not shown here. Equal entries are not always repeated. Records with an inconclusive call do not appear. Active and inactive are the calls of the source.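 Rule for the calls: active = compounds whose fitted half-maximal concentration is at most twice their own top valid dose, with signal falling; inconclusive = flat curve with 30 to 70% inhibition, or poor fit; inactive = the rest.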
# Tested on: S. cerevisiae Rlm1-lacZ reporter, CFW-induced, luminescence 4 h
# Assay: inhibitors of CFW-induced Rlm1 reporter, dose response, S. cerevisiae, lacZ luminescence, calcofluor white, dry powder (AID 743124)
# Details: not given
row,Compound,AC50
1,Cc1ccc(C(C)C)c(OCCn2c(=S)[nH]c3ccccc32)c1,> 70 µM (inactive)
2,Cc1ccc(OCCn2c(SCCO)nc3ccccc32)c(C(C)C)c1,> 70 µM (inactive)
3,Fc1cccc2c1[nH]c(=S)n2CCOc1ccccc1,> 70 µM (inactive)
4,CCOC(=O)c1c(NC(=O)CN2CCN(C)CC2)sc(C)c1-c1ccc(C)cc1,> 70 µM (inactive)
5,S=c1[nH]c2ccccc2n1CCOc1ccccc1,> 70 µM (inactive)
6,COC(=O)C1=C(C)N(Cc2ccc(F)cc2)C(=S)NC1c1cccc(F)c1 (centres undefined),> 70 µM (inactive)
7,Cc1ccc(OCCn2c(=S)[nH]c3ccccc32)cc1,33.2 µM
8,Fc1ccccc1OCCn1c(=S)[nH]c2ccccc21,> 70 µM (inactive)
9,CCOC(=O)c1c(-c2ccc(-c3ccccc3)cc2)csc1NC(=O)CNCCN(C)C,> 70 µM (inactive)
10,COC(=O)C1=C(C)N(Cc2ccc(Br)cc2)C(=S)NC1c1ccc(F)cc1 (centres undefined),> 70 µM (inactive)
11,S=c1[nH]c2cccc(Cl)c2n1CCOc1ccccc1,26.7 µM

# Tested on: not listed separately
# Assay: as above
# Details: S. cerevisiae Rlm1-lacZ reporter, CFW-induced, luminescence 4 h; at 35 µM (top of the series)
row,Compound,"activity change, negative = inhibition"
1,COC(=O)C1=C(C)N(Cc2ccc(Br)cc2)C(=S)NC1c1ccc(OC)cc1 (centres undefined),1.69% (inactive)
2,CCOC(=O)c1c(-c2ccc(OC)cc2)csc1NC(=O)CN(C)CC(=O)N(C)C,-25% (inactive)
3,CCOC(=O)c1c(NC(=O)CNCCN(C)C)sc(C)c1-c1ccccc1,-8.38% (inactive)
4,Cc1ccc2c(c1)[nH]c(=S)n2CCOc1ccccc1,-5.38% (inactive)
5,CCOC(=O)c1c(-c2ccc(C(C)(C)C)cc2)csc1NC(=O)CN1CCN(CC)CC1,-28.1% (inactive)
6,Cc1ccc(OCCn2c(C)nc3ccccc32)cc1,13.6% (inactive)
7,O=c1[nH]c2ccccc2n1CCOc1ccccc1,6.62% (inactive) and -10.4% (inactive)
8,Cc1ccccc1OCCn1c(=S)[nH]c2ccccc21,-14.7% (inactive)
9,COC(=O)C1=C(C)N(Cc2ccccc2)C(=S)NC1c1ccc(Br)cc1 (centres undefined),9.97% (inactive)
10,Cc1ccc(OCCn2cnc3ccccc32)cc1,15.9% (inactive)
11,CCOC(=O)c1c(-c2ccc(F)cc2)csc1NC(=O)CN1CCN(C)CC1,-6.7% (inactive)
12,COC(=O)C1=C(C)N(Cc2ccc(Cl)cc2)C(=S)NC1c1ccc(Br)cc1 (centres undefined),0.264% (inactive)
13,CCOC(=O)c1c(-c2ccc(F)cc2)csc1NC(=O)CN1CCN(CC)CC1,-5.43% (inactive)
